Assay results as given in patent publication US20240360157A1, “TYK2 INHIBITORS” (BIOGEN MA INC., priority 2021, published 2024).

Assays:
Type in all cases: biochemical
[1] = target: human JAK2 catalytic kinase (JH1) domain (Homo sapiens (Human), UniProt O60674); assay: ADP-Glo Kinase Assay, recombinant JAK2 catalytic kinase (JH1) domain; conditions: recombinant JH1 domain 0.2 nM, 15 μM ATP, JAK3-974 peptide, mean, read-out: JAK2 biochem IC50 (nM) Mean
Method in brief: (§1)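 Reactions ran 100 min with 50 μM substrate peptide (JAK3-342 for JAK1 at 4 nM enzyme; JAK3-974 for JAK2 0.2 nM, JAK3 0.3 nM, TYK2 2 nM), and ADP formed was read by ADP-Glo luminescence. Eleven-point 3-fold series from 10 or 1 μM; IC50 fitted by 4-parameter logistic model.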

[2] = target: human JAK1 catalytic kinase (JH1) domain (Homo sapiens (Human), UniProt P23458); assay: ADP-Glo Kinase Assay, recombinant JAK1 catalytic kinase (JH1) domain; conditions: recombinant JH1 domain 4 nM, 35 μM ATP, JAK3-342 peptide, mean, read-out: JAK1 biochem IC50 (nM) Mean
Method in brief: as §1

[3] = target: human TYK2 catalytic kinase (JH1) domain (Homo sapiens (Human), UniProt P29597); assay: ADP-Glo Kinase Assay, recombinant TYK2 catalytic kinase (JH1) domain; conditions: recombinant JH1 domain 2 nM, 10 μM ATP, JAK3-974 peptide, mean, read-out: TYK2 biochem IC50 (nM) Mean
Method in brief: as §1

[4] = target: human JAK3 catalytic kinase (JH1) domain (Homo sapiens (Human), UniProt P52333); assay: ADP-Glo Kinase Assay, recombinant JAK3 catalytic kinase (JH1) domain; conditions: recombinant JH1 domain 0.3 nM, 4 μM ATP, JAK3-974 peptide, mean, read-out: JAK3 biochem IC50 (nM) Mean
Method in brief: as §1

human JAK2 catalytic kinase (JH1) domain, sequence (O60674 849-1124): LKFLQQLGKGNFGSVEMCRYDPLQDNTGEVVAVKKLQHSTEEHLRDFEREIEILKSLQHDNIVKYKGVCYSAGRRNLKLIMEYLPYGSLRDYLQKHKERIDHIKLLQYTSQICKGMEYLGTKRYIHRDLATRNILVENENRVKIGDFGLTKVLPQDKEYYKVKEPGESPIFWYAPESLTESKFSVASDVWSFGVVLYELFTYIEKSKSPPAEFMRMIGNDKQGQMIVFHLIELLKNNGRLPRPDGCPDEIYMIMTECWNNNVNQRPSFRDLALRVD
human JAK3 catalytic kinase (JH1) domain, sequence (P52333 822-1111): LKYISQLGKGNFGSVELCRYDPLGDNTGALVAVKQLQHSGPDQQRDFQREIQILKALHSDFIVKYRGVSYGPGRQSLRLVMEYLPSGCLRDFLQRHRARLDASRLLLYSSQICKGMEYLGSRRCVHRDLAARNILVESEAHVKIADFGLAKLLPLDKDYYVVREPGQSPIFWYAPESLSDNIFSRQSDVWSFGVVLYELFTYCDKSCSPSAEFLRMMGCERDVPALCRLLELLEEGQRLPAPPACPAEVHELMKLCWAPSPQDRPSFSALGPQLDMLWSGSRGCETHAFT
human JAK1 catalytic kinase (JH1) domain, sequence (P23458 875-1153): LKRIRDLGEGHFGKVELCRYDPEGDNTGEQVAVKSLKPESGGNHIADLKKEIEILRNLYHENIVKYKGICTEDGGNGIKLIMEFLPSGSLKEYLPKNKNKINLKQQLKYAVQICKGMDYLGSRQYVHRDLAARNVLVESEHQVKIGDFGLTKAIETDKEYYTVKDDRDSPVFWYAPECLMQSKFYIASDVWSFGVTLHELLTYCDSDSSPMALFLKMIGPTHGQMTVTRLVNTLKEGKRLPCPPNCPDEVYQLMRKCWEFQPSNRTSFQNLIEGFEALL
human TYK2 catalytic kinase (JH1) domain, sequence (P29597 897-1176): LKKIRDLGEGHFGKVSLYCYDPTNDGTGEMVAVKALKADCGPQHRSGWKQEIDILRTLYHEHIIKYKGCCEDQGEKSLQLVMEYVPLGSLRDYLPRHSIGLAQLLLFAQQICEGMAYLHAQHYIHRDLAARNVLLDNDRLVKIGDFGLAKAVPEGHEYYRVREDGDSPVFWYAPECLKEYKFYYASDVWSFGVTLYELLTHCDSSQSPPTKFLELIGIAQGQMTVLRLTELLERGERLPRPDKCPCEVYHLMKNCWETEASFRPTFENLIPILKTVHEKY

| Structure (SMILES) | IC50 [1] [nM] | IC50 [2] [nM] | IC50 [3] [nM] | IC50 [4] [nM] |
| --- | --- | --- | --- | --- |
| CNc1cc(-c2nc3c(N4CC5CCC(C4)N5C(=O)[C@@H]4C[C@H]4F)ccnc3[nH]2)ccn1 [Example 217, ((1S,2R)-2-fluorocyclopropyl)(3-(2-(2-(methylamino)pyridin-4-yl)-3H-imidazo[4,5-b]pyridin-7-yl)-3,8-diazabicyclo[3.2.1]octan-8-yl)methanone] | 8 | 3 | 0.4 | 107 |
| Cn1cc(-c2cc3c(N4CC5CCC(C4)N5C(=O)C4CC4)ccnn3c2)cn1 [Example 15, cyclopropyl(3-(6-(1-methyl-1H-pyrazol-4-yl)pyrrolo[1,2-b]pyridazin-4-yl)-3,8-diazabicyclo[3.2.1]octan-8-yl)methanone] | 376 | 646 | 13 | 888 |
| COc1cc(-c2cc3c(N4CC5CCC(C4)N5C(=O)[C@@H]4C[C@H]4F)ccnn3c2)c(F)cn1 [Example 27, (3-(6-(5-fluoro-2-methoxypyridin-4-yl)pyrrolo[1,2-b]pyridazin-4-yl)-3,8-diazabicyclo[3.2.1]octan-8-yl)((1S,2R)-2-fluorocyclopropyl)methanone] | 325 | 277 | 16 | 4000 |
| Cn1cc(-c2nc3c(N4CC5CCC(C4)N5S(=O)(=O)C4CC4)ccnc3[nH]2)cn1 [Example 195] | 38 | 194 | 20.6 | 306 |
| O=C([C@@H]1C[C@H]1F)N1C2CCC1CN(c1ccnn3cc(-c4cnn(C(F)(F)F)c4)cc13)C2 [Example 18, ((1S,2R)-2-fluorocyclopropyl)(3-(6-(1-(trifluoromethyl)-1H-pyrazol-4-yl)pyrrolo[1,2-b]pyridazin-4-yl)-3,8-diazabicyclo[3.2.1]octan-8-yl)methanone] | 33 | 38 | 1.5 | 391 |
| COc1cc(-c2cc3c(N4CC5CCC(C4)N5C(=O)[C@@H]4C[C@H]4F)c(F)cnc3[nH]2)ccn1 [Example 139, (3-(5-fluoro-2-(2-methoxypyridin-4-yl)-1H-pyrrolo[2,3-b]pyridin-4-yl)-3,8-diazabicyclo[3.2.1]octan-8-yl)((1S,2R)-2-fluorocyclopropyl)methanone] | 74 | 39 | 5.5 | 144 |
| O=C([C@@H]1C[C@H]1F)N1C2CCC1CN(c1ccnc3[nH]c(C4(F)CC4)nc13)C2 [Example 210, ((1S,2R)-2-fluorocyclopropyl)(3-(2-(1-fluorocyclopropyl)-3H-imidazo[4,5-b]pyridin-7-yl)-3,8-diazabicyclo[3.2.1]octan-8-yl)methanone] | 2600 | 798 | 398 | 5520 |
| O=C([C@@H]1C[C@H]1F)N1C2CCC1CN(c1ccnn3cc(-c4ccc(C(F)F)nc4)cc13)C2 [Example 116, (3-(6-(6-(difluoromethyl)pyridin-3-yl)pyrrolo[1,2-b]pyridazin-4-yl)-3,8-diazabicyclo[3.2.1]octan-8-yl)((1S,2R)-2-fluorocyclopropyl)methanone] | 41 | 44 | 2.6 | 847 |
| O=C(C1CC1)N1C2CCC1CN(c1ncnn3cc(-c4ccncc4)cc13)C2 [Example 181] | 7860 | 1040 | 229 | 5520 |
| N#Cc1cccc(-c2cc3c(N4CC5CCC(C4)N5C(=O)C4CC4)ncnn3c2)c1 [Example 176] | 10000 | 3560 | 830 | 9890 |
| O=C(C1CC1)N1C2CCC1CN(c1ccnc3[nH]c(-c4cnn(C(F)F)c4)cc13)C2 [Example 237, cyclopropyl(3-(2-(1-(difluoromethyl)-1H-pyrazol-4-yl)-1H-pyrrolo[2,3-b]pyridin-4-yl)-3,8-diazabicyclo[3.2.1]octan-8-yl)methanone] | 39 | 50 | 1.1 | 183 |
| O=C([C@@H]1C[C@H]1F)N1C2CCC1CN(c1ccnn3cc([C@H]4CC4(F)F)cc13)C2 (single isomer, unassigned) [Example 135] | 8220 | 2010 | 125 | ≥ 10000 |
| O=C([C@H]1C[C@@H]1F)N1C2CCC1CN(c1ncnn3cc(-c4cnn(C(F)F)c4)cc13)C2 (single isomer, unassigned) [Example 75] | ≥ 10000 | 1580 | 456 | 5060 |
| O=C(C1CC1)N1C2CCC1CN(c1ncnn3cc(-c4ccccc4)cc13)C2 [Example 177] | 10000 | 1230 | 300 | 4670 |
| COc1nn(C)cc1-c1cc2c(N3CC4CCC(C3)N4C(=O)[C@@H]3C[C@H]3F)ccnn2c1 [Example 134, ((1S,2R)-2-fluorocyclopropyl)(3-(6-(3-methoxy-1-methyl-1H-pyrazol-4-yl)pyrrolo[1,2-b]pyridazin-4-yl)-3,8-diazabicyclo[3.2.1]octan-8-yl)methanone] | 24 | 114 | 1.4 | 588 |
| Cn1cc(-c2nc3c(N4CC5CCC(C4)N5C(=O)C4CC4)ccnc3[nH]2)cn1 [Example 199, cyclopropyl(3-(2-(1-methyl-1H-pyrazol-4-yl)-3H-imidazo[4,5-b]pyridin-7-yl)-3,8-diazabicyclo[3.2.1]octan-8-yl)methanone] | 56 | 92 | 6.2 | 219 |
| Cn1cc(-c2cc3c(N4CC5CCC(C4)N5C(=O)[C@H]4C[C@@H]4F)ncnn3c2)cn1 [Example 6, ((1R,2S)-2-fluorocyclopropyl)(3-(6-(1-methyl-1H-pyrazol-4-yl)pyrrolo[2,1-f][1,2,4]triazin-4-yl)-3,8-diazabicyclo[3.2.1]octan-8-yl)methanone] | 2260 | 682 | 133 | 827 |
| O=C(C1CC1)N1C2CCC1CN(c1ncnn3cc(-c4ccnc(Cl)c4)cc13)C2 [Example 180] | 10000 | 4750 | 547 | 10000 |
| Cn1cc(-c2cc3c(N4CC5CCC(C4)N5C(=O)C(C)(F)F)ncnn3c2)cn1 [Example 72, 2,2-difluoro-1-(3-(6-(1-methyl-1H-pyrazol-4-yl)pyrrolo[2,1-f][1,2,4]triazin-4-yl)-3,8-diazabicyclo[3.2.1]octan-8-yl)propan-1-one] | 2340 | 759 | 206 | 703 |
| Cc1ccc(-c2cc3c(N4CC5CCC(C4)N5C(=O)[C@@H]4C[C@H]4F)ccnn3c2)cn1 [Example 113, ((1S,2R)-2-fluorocyclopropyl)(3-(6-(6-methylpyridin-3-yl)pyrrolo[1,2-b]pyridazin-4-yl)-3,8-diazabicyclo[3.2.1]octan-8-yl)methanone] | 56 | 69 | 3 | 672 |
| COc1ccc(-c2cc3c(N4CC5CCC(C4)N5C(=O)[C@@H]4C[C@H]4F)ccnn3c2)nn1 [Example 122, ((1S,2R)-2-fluorocyclopropyl)(3-(6-(6-methoxypyridazin-3-yl)pyrrolo[1,2-b]pyridazin-4-yl)-3,8-diazabicyclo[3.2.1]octan-8-yl)methanone] | 63 | 308 | 3.7 | 940 |
| O=C([C@@H]1C[C@H]1F)N1C2CCC1CN(c1ncnc3[nH]c(-c4ccnc(C(F)(F)F)c4)cc13)C2 [Example 223, ((1S,2R)-2-fluorocyclopropyl)(3-(6-(2-(trifluoromethyl)pyridin-4-yl)-7H-pyrrolo[2,3-d]pyrimidin-4-yl)-3,8-diazabicyclo[3.2.1]octan-8-yl)methanone] | 352 | 308 | 23.9 | 1620 |
| N#C[C@@H]1C[C@H]1C(=O)N1C2CCC1CN(c1ncnn3cc(-c4cnn(C(F)F)c4)cc13)C2 (single isomer, unassigned) [Example 78] | 1510 | 869 | 120 | 6880 |
| O=C(C1C[C@H]1F)N1C2CCC1CN(c1ncnc3[nH]c(-c4ccncc4F)cc13)C2 (stereo partly drawn) [Example 232] | 322 | 226 | 13.1 | 848 |
| O=C(C1C[C@H]1F)N1C2CCC1CN(c1ncnc3[nH]c(-c4cncc(F)c4)cc13)C2 (stereo partly drawn) [Example 229] | 1740 | 1240 | 122 | 10000 |
| Cc1c(-c2cnn(C)c2)[nH]c2nccc(N3CC4CCC(C3)N4C(=O)[C@@H]3C[C@H]3F)c12 [Example 249, ((1S,2R)-2-fluorocyclopropyl)(3-(3-methyl-2-(1-methyl-1H-pyrazol-4-yl)-1H-pyrrolo[2,3-b]pyridin-4-yl)-3,8-diazabicyclo[3.2.1]octan-8-yl)methanone] | 251 | 1240 | 19 | 2810 |
| O=C([C@@H]1C[C@H]1F)N1C2CCC1CN(c1ccnn3cc(-c4ccnc(C(F)F)c4)cc13)C2 [Example 101, (3-(6-(2-(difluoromethyl)pyridin-4-yl)pyrrolo[1,2-b]pyridazin-4-yl)-3,8-diazabicyclo[3.2.1]octan-8-yl)((1S,2R)-2-fluorocyclopropyl)methanone] | 27 | 22 | 1.4 | 541 |
